Assay results taken from publication PMC8110684, “Effects of Bacillus subtilis iturin A on HepG2 cells in vitro and vivo” (AMB Express, 2021).
Like-named read-outs stand apart in the source and are kept apart here. Where a SMILES comes first, the peptide text is derived from it.

Experiments:
[1] = test system: HepG2 cells; experiment: Capability to enter cells (CFNSE label, fluorescence microscopy); conditions: dissolved in cell culture medium, incubated with HepG2 for 10 min, fluorescence microscope
Protocol: (§1) The purified CFNSE-iturin A was dissolved in cell culture medium and incubated with HepG2 cells for 10 min, and then observed under a fluorescence microscope and photographed. The control group was cells incubated with CFNSE for the same time.

[2] = Effect of treatment on mice health (weight, serum biochemistry, necropsy, histopathology); assay type: in vivo, BALB/c nude mice; conditions: 3 mg/kg per day
Protocol: During the 15-day trial, the weight and food intake of mice were recorded daily.
At euthanasia, blood was collected after the animals had been fasted overnight. Blood samples were collected from both control and test groups via cardiac puncture under ketamine anesthesia. All blood samples were then subjected to clinical analysis of aspartate aminotransferase (AST), alanine aminotransferase (ALT), and creatinine (SCr).
Mice were examined for gross lesions. Tissues and organs of interest were retained. The liver, kidneys, and spleen of all mice were weighed soon after dissection and then preserved in 4% paraformaldehyde for histopathological examination (Turki et al. [2010]). Histopathological assessments were performed to evaluate viscera retained from both control and treated animals. Viscera of interest were trimmed, processed, embedded in paraffin, sectioned, and stained with H&E before their microscopic examination.

[3] = test system: HepG2 cells
Protocol: as §1

5(6)-Carboxy fluorescein N-succinimidyl ester [CFNSE]
entry into HepG2 cells (cell fluorescence) [1]: could not enter the cells

CCCCCCCCCCCC1CC(=O)N[C@@H](CC(N)=O)C(=O)N[C@H](Cc2ccc(O)cc2)C(=O)N[C@H](CC(N)=O)C(=O)N[C@@H](CCC(N)=O)C(=O)N2CCC[C@H]2C(=O)N[C@H](CC(N)=O)C(=O)N[C@@H](CO)C(=O)N1 (stereo partly shown) [iturin A] (HELM PEPTIDE1{N.[dY].[dN].Q.P.[dN].S.[CCCCCCCCCCCC(CC(=O)[*:2])N[*:1]]}$PEPTIDE1,PEPTIDE1,1:R1-8:R2$$$V2.0)
kidney histopathology (H&E) ([2]; 15 days): no necrotic cells or cell swelling was found
liver histopathology (H&E) ([2]; 15 days): no hepatocyte swelling, necrosis, inflammatory cell infiltration, or other phenomena were observed
spleen histopathology (H&E) ([2]; 15 days): orderly arrangement of cells without necrosis
body weight versus control group ([2]; 15 days, n = 6): no significant difference
weight and viscera indexes of liver, spleen and kidney versus control ([2]; 15 days, n = 6): No significant differences
serum ALT versus control ([2]; end of administration, n = 6): increased significantly
serum AST versus control ([2]; end of administration, n = 6): increased significantly
serum creatinine (SCr) versus control ([2]; end of administration, n = 6): no significant difference
entry into HepG2 cells (cell fluorescence) [3]: could enter HepG2 cells within very short time
